Data reported in patent US20100069443A1, “COMPOUND WITH BENZAMIDE SKELETON HAVING CYCLOOXYGENASE-1 (COX-1)-SELECTIVE INHIBITORY ACTIVITY” (National University Corporation Okayama University, priority 2006, published 2010).
Where two headings read alike, the source gives them in different places.

Experiments:
[1] = molecular target: T1, cyclooxygenase 2 (COX-2) (Ovis aries, UniProt P79208); experiment: Cayman Cyclooxygenase Inhibitor Screening Assay Kit (760111), COX-2; type: biochemical; details: for inhibition at 100 µM: read-out: Inhibitory activity of 100 μM compound (%) COX-2
T1 construct: purchased Cayman 760111
T1 sequence (P79208 17-603): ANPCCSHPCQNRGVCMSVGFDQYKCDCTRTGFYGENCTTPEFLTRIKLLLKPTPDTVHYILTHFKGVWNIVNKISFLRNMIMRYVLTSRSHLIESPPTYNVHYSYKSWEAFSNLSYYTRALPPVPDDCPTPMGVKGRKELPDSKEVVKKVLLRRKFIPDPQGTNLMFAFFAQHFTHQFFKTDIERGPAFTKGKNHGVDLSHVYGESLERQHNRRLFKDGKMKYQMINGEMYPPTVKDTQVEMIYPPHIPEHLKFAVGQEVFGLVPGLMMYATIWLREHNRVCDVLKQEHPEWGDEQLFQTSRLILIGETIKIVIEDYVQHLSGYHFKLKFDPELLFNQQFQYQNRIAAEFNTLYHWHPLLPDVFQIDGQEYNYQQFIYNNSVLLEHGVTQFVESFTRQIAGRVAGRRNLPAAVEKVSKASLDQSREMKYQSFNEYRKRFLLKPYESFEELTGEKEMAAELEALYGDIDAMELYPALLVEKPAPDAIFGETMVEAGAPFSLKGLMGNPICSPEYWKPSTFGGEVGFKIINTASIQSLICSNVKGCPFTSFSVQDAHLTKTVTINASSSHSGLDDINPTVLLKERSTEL

[2] = molecular target: T2, cyclooxygenase-1 (COX-1) (Ovis aries, UniProt P05979); experiment: Cayman Cyclooxygenase Inhibitor Screening Assay Kit (760111), COX-1; type: biochemical; details: for inhibition at 100 µM: read-out: Inhibitory activity of 100 μM compound (%) COX-1
T2 construct: purchased Cayman 760111
T2 sequence (P05979 25-600): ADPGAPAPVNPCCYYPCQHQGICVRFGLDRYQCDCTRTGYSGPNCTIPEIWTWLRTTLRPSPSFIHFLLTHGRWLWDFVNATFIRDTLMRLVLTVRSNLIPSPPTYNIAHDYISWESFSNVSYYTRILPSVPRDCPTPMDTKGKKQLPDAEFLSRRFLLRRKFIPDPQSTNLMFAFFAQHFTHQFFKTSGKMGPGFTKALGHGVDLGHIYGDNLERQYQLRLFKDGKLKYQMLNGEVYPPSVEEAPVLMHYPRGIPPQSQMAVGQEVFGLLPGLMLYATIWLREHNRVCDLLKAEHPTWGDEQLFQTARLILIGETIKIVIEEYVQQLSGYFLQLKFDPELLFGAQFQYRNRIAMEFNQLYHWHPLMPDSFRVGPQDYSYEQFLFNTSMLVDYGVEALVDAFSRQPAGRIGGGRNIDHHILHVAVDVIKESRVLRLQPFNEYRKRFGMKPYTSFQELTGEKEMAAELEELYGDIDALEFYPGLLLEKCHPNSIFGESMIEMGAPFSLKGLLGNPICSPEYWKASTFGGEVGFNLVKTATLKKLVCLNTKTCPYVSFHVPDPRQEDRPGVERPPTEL

[3] = tested on: gastric ulcer; experiment: Gastric ulcer formation; type: in vivo; details: 30 mg/kg orally, mice, 5 hours later
Experimental: Compound 1 was orally administered in amounts of 30 mg/kg to groups each consisting of 3 to 5 mice, mice were sacrificed with the use of ether 5 hours later, and the stomachs were extracted. The extracted stomachs were opened, each entire stomach was photographed using a stereoscopic microscope, and the lengths of the gastric ulcers were determined.

[4] = tested on: acetic acid-induced writhing responses; experiment: Acetic acid writhing test (analgesic testing); type: in vivo; details: mice; for Number of writhing responses: counted for 10 minutes, average; for Analgesic effect, suppression of the number of writhing responses (in words): oral administration
Experimental: Analgesic testing was carried out via common mice-based acetic acid writhing test. Compounds were administered orally in amounts of 30 mg/kg to groups each consisting of 10 or 11 mice, and a substance that applies pain stimuli, i.e., a 0.7% acetic acid solution, was intraperitoneally administered 30 minutes thereafter (0.1 ml/10 g). The counting of mice-specific writhing responses was initiated 10 minutes after the administration of the acetic acid solution, and the counting was continued for 10 minutes. This test utilizes the fact that a distinct symptom of agony, that is a writhing response, occurs upon administration of a stimulatory substance, such as an acetic acid solution, to a mouse. […] When compound 1 was administered in amounts of 30 mg/kg, however, the number of writhing responses was 5 on average. When compound 1 was administered in amounts of 10 mg/kg, the number of writhing responses was 10 on average. When compound 14 was administered in amounts of 30 mg/kg, the number of writhing responses was 6 on average.

[5] = tested on: carrageenin-induced edema in footpads of hind paws; experiment: Carrageenin edema test (antiinflammatory testing); type: in vivo, rat; details: 30 mg/kg orally; 3 hours after administration of 1% carrageenin
Experimental: Antiinflammatory testing was carried out via a rat-based carrageenin edema test. Compounds were orally administered in amounts of 30 mg/kg to groups each consisting of 5 to 8 […], and an edema-inducing substance (a 1% carrageenin solution) was administered hypodermically to footpads of hind paws 1 hour later (0.1 ml/mouse). Edema thickness in the footpads of hind paws was measured 1, 2, and 3 hours thereafter.

[6] = 30 mg/kg orally, 0.7% acetic acid i.p. 30 minutes later
[7] = 10 mg/kg orally, 0.7% acetic acid i.p.

| SMILES | IC50 [1] [µM] | inhibition at 100 µM [1] [%] | IC50 [2] [µM] | inhibition at 100 µM [2] [%] | Gastric ulcer formation (in words) [3] | Total length of gastric ulcer (mm) [3] [mm] | Number of writhing responses [4, 6] | Analgesic effect, suppression of the number of writhing responses (in words) [4] | Death of mice (300 mg/kg intraperitoneally, 5 mice, observed for 14 days) | Number of writhing responses [4, 7] | Inhibitory activity against edema (%) [5] [%] | Death of mice (1 g/kg intraperitoneally, 3 mice, observed for 10 days) |
| --- | --- | --- | --- | --- | --- | --- | --- | --- | --- | --- | --- | --- |
| Nc1ccc(C(=O)Nc2ccc(C(F)(F)F)cn2)cc1 [Compound 14] | > 100 | 15 | 30 | 65 | not observed | 0.01 | 6 | significantly suppresses | did not die |  |  |  |
| CC(=O)Oc1ccccc1C(=O)O [Aspirin, aspirin, reference compound] |  |  |  |  | significant gastric ulcers | 1.61 | 15 |  |  | 17 | 16 |  |
| Nc1ccc(NC(=O)c2ccc(C(F)(F)F)cc2)nc1 [Compound 1] | > 100 | 24 | 1 | 98 | not observed | 0.09 | 5 | significantly suppresses |  | 10 | 31 | did not die |
